Reference: patent US20260184675A1, “CHIRAL ISOMERIC SULFITE COMPOUND AND APPLICATION THEREOF” (Chengdu Hanova BioSciences Co., Ltd, priority 2024, published 2026)

Tests used:
[1] = system: pest eggs of Tetranychus cinnabarinus; assay: Effect on hatching of pest eggs of Tetranychus cinnabarinus, leaf disc method; format: in vivo; details: for Hatching rate (%): 7 days after insecticide delivery; for inhibitory effect on the hatching of pest eggs of Tetranychus cinnabarinus (in words): 1 ppm
In short: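 Adult female mites laid eggs on 2.0 cm Vicia faba leaf discs for up to 36 h; discs with counted eggs were dipped 10 s in compound solution or water, then kept moist. Hatched eggs were counted 7 days after treatment and control effect was calculated by formula.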

[2] = system: eggs of Spodoptera litura; assay: Effect on hatching of eggs of Spodoptera litura, egg piece soaking; format: in vivo; details: 500 ppm; for Hatching rate (%), Replicate 1 / Hatching rate (%), Replicate 2 / Hatching rate (%), Replicate 3 / Number of unhatched larvae 4 days after insecticide delivery, Replicate 1 / Number of unhatched larvae 4 days after insecticide delivery, Replicate 2 / Number of unhatched larvae 4 days after insecticide delivery, Replicate 3: Spodoptera litura eggs; for Hatching rate (%), Replicate 1 / Hatching rate (%), Replicate 2 / Hatching rate (%), Replicate 3: 4 days after delivery; for Number of unhatched larvae 4 days after insecticide delivery, Replicate 1 / Number of unhatched larvae 4 days after insecticide delivery, Replicate 2 / Number of unhatched larvae 4 days after insecticide delivery, Replicate 3: soaked 10 minutes
In short: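 Egg pieces of about 60 eggs were soaked 10 min in test agent at 500 ppm, blotted, then held singly at 24±1 °C, 80±10% RH, 12:12 L:D. Hatched and unhatched eggs were counted on day 4 to give hatching rate and control effect; 3 replicates.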

C[C@@H](COS(=O)OCCF)Oc1ccc(Cl)cc1Cl (stereo partly drawn) [1-(S,S)]
Hatching rate (%) ([1]; 0.25 mg/L, Replicate 1): 50.88% | Hatching rate (%) ([1]; 0.25 mg/L, Replicate 2): 38.98% | Number of hatched larvae 7 days after insecticide delivery ([1]; 0.25 mg/L, Replicate 1): 28 | Number of hatched larvae 7 days after insecticide delivery ([1]; 0.25 mg/L, Replicate 2): 36 | Hatching rate (%) ([1]; 0.5 mg/L, Replicate 1): 0.00% | Hatching rate (%) ([1]; 0.5 mg/L, Replicate 2): 9.72% | Number of hatched larvae 7 days after insecticide delivery ([1]; 0.5 mg/L, Replicate 1): 70 | Number of hatched larvae 7 days after insecticide delivery ([1]; 0.5 mg/L, Replicate 2): 65 | Hatching rate (%) ([1]; 1 mg/L, Replicate 1): 0.00% | Hatching rate (%) ([1]; 1 mg/L, Replicate 2): 0.00% | Number of hatched larvae 7 days after insecticide delivery ([1]; 1 mg/L, Replicate 1): 75 | Number of hatched larvae 7 days after insecticide delivery ([1]; 1 mg/L, Replicate 2): 68 | inhibitory effect on the hatching of pest eggs of Tetranychus cinnabarinus (in words) [1]: excellent inhibitory effects | inhibitory activity on the hatching of eggs of Spodoptera litura (in words) [2]: good inhibitory activities | Hatching rate (%), Replicate 1 ([2]; listed as 1-(S, S)): 23.73% | Hatching rate (%), Replicate 2 ([2]; listed as 1-(S, S)): 26.15% | Hatching rate (%), Replicate 3 ([2]; listed as 1-(S, S)): 20.69% | Number of unhatched larvae 4 days after insecticide delivery, Replicate 1 ([2]; listed as 1-(S, S)): 45 | Number of unhatched larvae 4 days after insecticide delivery, Replicate 2 ([2]; listed as 1-(S, S)): 48 | Number of unhatched larvae 4 days after insecticide delivery, Replicate 3 ([2]; listed as 1-(S, S)): 46

CC(C)(COc1ccc(Cl)cc1Cl)OS(=O)OCCF (centres unmarked) [Compound 10]
inhibitory effect on the hatching of pest eggs of Tetranychus cinnabarinus (in words) [1]: excellent inhibitory effects | Hatching rate (%), Replicate 1 [2]: 41.27% | Hatching rate (%), Replicate 2 [2]: 40.98% | Hatching rate (%), Replicate 3 [2]: 42.11% | Number of unhatched larvae 4 days after insecticide delivery, Replicate 1 [2]: 37 | Number of unhatched larvae 4 days after insecticide delivery, Replicate 2 [2]: 36 | Number of unhatched larvae 4 days after insecticide delivery, Replicate 3 [2]: 33

CC(C)(COS(=O)OCCF)Oc1ccc(Cl)cc1Cl (centres unmarked) [Compound 10′]
Number of hatched larvae 7 days after insecticide delivery ([1]; 0.5 mg/L, Replicate 1): 47 | inhibitory effect on the hatching of pest eggs of Tetranychus cinnabarinus (in words) [1]: excellent inhibitory effects | Hatching rate (%), Replicate 1 [2]: 40.63% | Hatching rate (%), Replicate 2 [2]: 41.94% | Hatching rate (%), Replicate 3 [2]: 42.37% | Number of unhatched larvae 4 days after insecticide delivery, Replicate 1 [2]: 38 | Number of unhatched larvae 4 days after insecticide delivery, Replicate 2 [2]: 36 | Number of unhatched larvae 4 days after insecticide delivery, Replicate 3 [2]: 34

C[C@H](COS(=O)OCCF)Oc1ccc(Cl)cc1Cl (stereo partly drawn) [1-(R,S)]
Hatching rate (%) ([1]; 0.25 mg/L, Replicate 1): 74.51% | Hatching rate (%) ([1]; 0.25 mg/L, Replicate 2): 76.47% | Number of hatched larvae 7 days after insecticide delivery ([1]; 0.25 mg/L, Replicate 1): 13 | Number of hatched larvae 7 days after insecticide delivery ([1]; 0.25 mg/L, Replicate 2): 14 | Hatching rate (%) ([1]; 0.5 mg/L, Replicate 1): 43.66% | Hatching rate (%) ([1]; 0.5 mg/L, Replicate 2): 48.98% | Number of hatched larvae 7 days after insecticide delivery ([1]; 0.5 mg/L, Replicate 1): 40 | Number of hatched larvae 7 days after insecticide delivery ([1]; 0.5 mg/L, Replicate 2): 25 | Hatching rate (%) ([1]; 1 mg/L, Replicate 1): 4.69% | Hatching rate (%) ([1]; 1 mg/L, Replicate 2): 6.67% | Number of hatched larvae 7 days after insecticide delivery ([1]; 1 mg/L, Replicate 1): 61 | Number of hatched larvae 7 days after insecticide delivery ([1]; 1 mg/L, Replicate 2): 42 | Hatching rate (%), Replicate 1 ([2]; listed as 1-(R, S)): 64.18% | Hatching rate (%), Replicate 2 ([2]; listed as 1-(R, S)): 61.40% | Hatching rate (%), Replicate 3 ([2]; listed as 1-(R, S)): 60.34% | Number of unhatched larvae 4 days after insecticide delivery, Replicate 1 ([2]; listed as 1-(R, S)): 25 | Number of unhatched larvae 4 days after insecticide delivery, Replicate 2 ([2]; listed as 1-(R, S)): 22 | Number of unhatched larvae 4 days after insecticide delivery, Replicate 3 ([2]; listed as 1-(R, S)): 23
